{
  "source": "paper PMC5218480",
  "about": "(PLoS ONE, 2017)",
  "system": "MV-4-11 cells",
  "experiment": "Gene expression microarray analysis (Affymetrix PrimeView) and GSEA",
  "format": "cell-based, human",
  "design": "RFU PODN (11730768_x_at) / Fold change /veh PODN (11730768_x_at) / RFU LINC00158 (11744669_a_at) / Fold change /veh LINC00158 (11744669_a_at) / RFU DUSP10 (11751237_a_at) / Fold change /veh DUSP10 (11751237_a_at) / RFU ID3 (11757404_x_at) / Fold change /veh ID3 (11757404_x_at) / RFU PLEKHG5 (11737974_s_at) / Fold change /veh PLEKHG5 (11737974_s_at) / RFU LRRC4B (11730491_at) / Fold change /veh LRRC4B (11730491_at) / RFU GIMAP4 (11747438_a_at) / Fold change /veh GIMAP4 (11747438_a_at) / RFU KRT8 (11758183_x_at) / Fold change /veh KRT8 (11758183_x_at) / RFU CNN1 (11734310_a_at) / Fold change /veh CNN1 (11734310_a_at) / RFU VPS37D (11726825_at) / Fold change /veh VPS37D (11726825_at) / RFU C10orf10 (11716522_x_at) / Fold change /veh C10orf10 (11716522_x_at) / RFU KIR2DL2 /// KIR2DL4 /// KIR2DL5A /// KIR2DL5B /// KIR2DS1 /// KIR2DS2 /// KIR2DS3 /// KIR2DS4 /// KIR3DL3 /// KIR3DL3 /// KIR3DS1 (11738374_at) / Fold change /veh KIR2DL2 /// KIR2DL4 /// KIR2DL5A /// KIR2DL5B /// KIR2DS1 /// KIR2DS2 /// KIR2DS3 /// KIR2DS4 /// KIR3DL3 /// KIR3DL3 /// KIR3DS1 (11738374_at) / RFU C1QL1 (11718748_at) / Fold change /veh C1QL1 (11718748_at) / RFU TMPRSS4 (11747572_a_at) / Fold change /veh TMPRSS4 (11747572_a_at) / RFU HAMP (11756126_x_at) / Fold change /veh HAMP (11756126_x_at) / RFU RNFT2 (11725882_a_at) / Fold change /veh RNFT2 (11725882_a_at) / RFU NR4A2 (11747474_a_at) / Fold change /veh NR4A2 (11747474_a_at) / RFU ABCC12 (11746883_a_at) / Fold change /veh ABCC12 (11746883_a_at) / RFU TMEM136 (11760407_x_at) / Fold change /veh TMEM136 (11760407_x_at) / RFU CLDN22 /// WWC2 (11732394_at) / Fold change /veh CLDN22 /// WWC2 (11732394_at) / RFU HLA-DPB1 (11760878_x_at) / Fold change /veh HLA-DPB1 (11760878_x_at) / RFU SPINT1 (11716480_a_at) / Fold change /veh SPINT1 (11716480_a_at) / RFU GAP43 (11754022_s_at) / Fold change /veh GAP43 (11754022_s_at) / RFU A4GNT (11735810_at) / Fold change /veh A4GNT (11735810_at) / RFU PRB3 (11715151_x_at) / Fold change /veh PRB3 (11715151_x_at) / RFU TUBB4B (11761932_at) / Fold change /veh TUBB4B (11761932_at) / RFU CAPN14 (11732068_a_at) / Fold change /veh CAPN14 (11732068_a_at) / RFU TMCC2 (11721928_a_at) / Fold change /veh TMCC2 (11721928_a_at) / RFU IRGQ (11745062_a_at) / Fold change /veh IRGQ (11745062_a_at) / RFU FAM174B (11720279_a_at) / Fold change /veh FAM174B (11720279_a_at) / RFU TMPRSS4 (11748680_a_at) / Fold change /veh TMPRSS4 (11748680_a_at) / RFU FAM212B (11763350_a_at) / Fold change /veh FAM212B (11763350_a_at) / RFU PLEKHG5 (11743358_a_at) / Fold change /veh PLEKHG5 (11743358_a_at) / RFU ZSCAN30 (11745921_a_at) / Fold change /veh ZSCAN30 (11745921_a_at) / RFU CMKLR1 (11741424_a_at) / Fold change /veh CMKLR1 (11741424_a_at) / RFU LOC101060620 /// MAPK8IP1 (11723275_at) / Fold change /veh LOC101060620 /// MAPK8IP1 (11723275_at) / RFU SPTSSB (11747773_x_at) / Fold change /veh SPTSSB (11747773_x_at) / RFU PRSS12 (11739890_at) / Fold change /veh PRSS12 (11739890_at) / RFU BIN1 (11741810_x_at) / Fold change /veh BIN1 (11741810_x_at) / RFU WNT11 (11732464_a_at) / Fold change /veh WNT11 (11732464_a_at) / RFU C10orf10 (11716521_a_at) / Fold change /veh C10orf10 (11716521_a_at) / RFU C5orf56 (11738089_at) / Fold change /veh C5orf56 (11738089_at) / RFU CYB561 (11721691_x_at) / Fold change /veh CYB561 (11721691_x_at) / RFU ANKRD19P (11752326_a_at) / Fold change /veh ANKRD19P (11752326_a_at) / RFU OR2T12 /// OR2T33 /// OR2T8 (11738714_s_at) / Fold change /veh OR2T12 /// OR2T33 /// OR2T8 (11738714_s_at) / RFU VCAN (11748164_a_at) / Fold change /veh VCAN (11748164_a_at) / RFU JSRP1 (11732532_at) / Fold change /veh JSRP1 (11732532_at) / RFU KRTAP10-11 (11738290_x_at) / Fold change /veh KRTAP10-11 (11738290_x_at) / RFU MYO3A (11730013_a_at) / Fold change /veh MYO3A (11730013_a_at) / RFU EBF3 (11725865_a_at) / Fold change /veh EBF3 (11725865_a_at) / RFU CAMK2N1 (11719241_x_at) / Fold change /veh CAMK2N1 (11719241_x_at) / RFU C5orf56 (11738088_a_at) / Fold change /veh C5orf56 (11738088_a_at) / RFU OLFML3 (11715873_a_at) / Fold change /veh OLFML3 (11715873_a_at) / RFU LOC100653217 /// NTM (11731650_a_at) / Fold change /veh LOC100653217 /// NTM (11731650_a_at) / RFU MAPK11 (11762145_a_at) / Fold change /veh MAPK11 (11762145_a_at) / RFU FIZ1 (11724087_x_at) / Fold change /veh FIZ1 (11724087_x_at) / RFU OASL (11726364_x_at) / Fold change /veh OASL (11726364_x_at) / RFU SOX15 (11748057_x_at) / Fold change /veh SOX15 (11748057_x_at) / RFU CD79A (11719716_a_at) / Fold change /veh CD79A (11719716_a_at) / RFU HIST1H1D (11736915_at) / Fold change /veh HIST1H1D (11736915_at) / RFU CASKIN2 (11723855_a_at) / Fold change /veh CASKIN2 (11723855_a_at) / RFU LOC730098 (11760151_x_at) / Fold change /veh LOC730098 (11760151_x_at) / RFU OR4N2 (11742367_at) / Fold change /veh OR4N2 (11742367_at) / RFU PRRT2 (11749266_a_at) / Fold change /veh PRRT2 (11749266_a_at) / RFU SNX32 (11753110_a_at) / Fold change /veh SNX32 (11753110_a_at) / RFU CDHR5 (11726645_a_at) / Fold change /veh CDHR5 (11726645_a_at) / RFU RCAN1 (11760418_a_at) / Fold change /veh RCAN1 (11760418_a_at) / RFU FAM167A (11723789_a_at) / Fold change /veh FAM167A (11723789_a_at) / RFU FAM26E (11764081_at) / Fold change /veh FAM26E (11764081_at) / RFU ISYNA1 (11749810_s_at) / Fold change /veh ISYNA1 (11749810_s_at) / RFU ACY1 (11761880_at) / Fold change /veh ACY1 (11761880_at) / RFU 11764098_at / Fold change /veh 11764098_at / RFU SAMD14 (11745864_x_at) / Fold change /veh SAMD14 (11745864_x_at) / RFU NPB (11741838_a_at) / Fold change /veh NPB (11741838_a_at) / RFU TMPRSS6 (11731388_a_at) / Fold change /veh TMPRSS6 (11731388_a_at) / RFU KRTAP10-2 (11738614_at) / Fold change /veh KRTAP10-2 (11738614_at) / RFU ARHGAP8 /// PRR5-ARHGAP8 (11727945_x_at) / Fold change /veh ARHGAP8 /// PRR5-ARHGAP8 (11727945_x_at) / RFU KRTAP5-7 /// NADSYN1 (11734609_at) / Fold change /veh KRTAP5-7 /// NADSYN1 (11734609_at) / RFU RASL12 (11751679_a_at) / Fold change /veh RASL12 (11751679_a_at) / RFU CDKN2B (11736163_a_at) / Fold change /veh CDKN2B (11736163_a_at) / RFU PRF1 (11729649_at) / Fold change /veh PRF1 (11729649_at) / RFU, ZNF638 /// ZNF638-IT1 / Fold change vs veh, ZNF638 /// ZNF638-IT1 / RFU, PANK3 / Fold change vs veh, PANK3 / RFU, SH3YL1 / Fold change vs veh, SH3YL1 / RFU, ZEB2 / Fold change vs veh, ZEB2 / RFU, NRIP1 / Fold change vs veh, NRIP1 / RFU, PTTG1IP / Fold change vs veh, PTTG1IP / RFU, CAPN2 / Fold change vs veh, CAPN2 / RFU, MED14 / Fold change vs veh, MED14 / RFU, SNORA58 / Fold change vs veh, SNORA58 / RFU, C1orf63 / Fold change vs veh, C1orf63 / RFU, LRRFIP1 / Fold change vs veh, LRRFIP1 / RFU, NDUFAF7 / Fold change vs veh, NDUFAF7 / RFU, SLC12A2 / Fold change vs veh, SLC12A2 / RFU, IBTK / Fold change vs veh, IBTK / RFU, ESF1 / Fold change vs veh, ESF1 / Fold change vs veh, TMEM50B / RFU, TAOK1 / Fold change vs veh, TAOK1 / RFU, ACBD3 / Fold change vs veh, ACBD3 / RFU, TMA16 / Fold change vs veh, TMA16 / RFU, RWDD3 / Fold change vs veh, RWDD3 / RFU, BCAT1 / Fold change vs veh, BCAT1 / RFU, EDEM3 / Fold change vs veh, EDEM3 / RFU, TMEM33 / Fold change vs veh, TMEM33 / RFU, WDR75 / Fold change vs veh, WDR75 / RFU, AHCTF1 / Fold change vs veh, AHCTF1 / RFU, TFRC / Fold change vs veh, TFRC / RFU, ZDHHC17 / Fold change vs veh, ZDHHC17 / RFU, NOM1 / Fold change vs veh, NOM1 / RFU, ARL8B / Fold change vs veh, ARL8B / RFU, ZBTB11 / Fold change vs veh, ZBTB11 / RFU, TAMM41 / Fold change vs veh, TAMM41 / RFU, KIAA1704 /// LOC100996395 / Fold change vs veh, KIAA1704 /// LOC100996395 / RFU, ING1 / Fold change vs veh, ING1 / RFU, TRMT61B / Fold change vs veh, TRMT61B / RFU, FUBP3 / Fold change vs veh, FUBP3 / RFU, TP53 / Fold change vs veh, TP53 / RFU, TNKS2 / Fold change vs veh, TNKS2 / RFU, ZFP14 / Fold change vs veh, ZFP14 / RFU, ACTR2 / Fold change vs veh, ACTR2 / RFU, PPP3R1 / Fold change vs veh, PPP3R1 / RFU, PIK3R1 / Fold change vs veh, PIK3R1 / RFU, HNRNPA1 / Fold change vs veh, HNRNPA1 / RFU, RNF170 / Fold change vs veh, RNF170 / RFU, ZNF28 / Fold change vs veh, ZNF28 / RFU, RNGTT / Fold change vs veh, RNGTT / RFU, OGT / Fold change vs veh, OGT / RFU, BRD1 / Fold change vs veh, BRD1 / RFU, MARS / Fold change vs veh, MARS / RFU, ZNF655 / Fold change vs veh, ZNF655 / RFU, FAHD1 / Fold change vs veh, FAHD1 / RFU, BDP1 / Fold change vs veh, BDP1 / RFU, LRRCC1 / Fold change vs veh, LRRCC1 / RFU, ARID1A / Fold change vs veh, ARID1A / RFU, ZNF146 / Fold change vs veh, ZNF146 / RFU, ZNF330 / Fold change vs veh, ZNF330 / RFU, GPN3 / Fold change vs veh, GPN3 / RFU, C9orf123 / Fold change vs veh, C9orf123 / RFU, N4BP2L2 / Fold change vs veh, N4BP2L2 / RFU, ARFIP1 / Fold change vs veh, ARFIP1 / RFU, FAM179B / Fold change vs veh, FAM179B / RFU, BCL10 / Fold change vs veh, BCL10 / RFU, UHRF1BP1L / Fold change vs veh, UHRF1BP1L / RFU, BET1 / Fold change vs veh, BET1 / RFU, CNOT2 / Fold change vs veh, CNOT2 / RFU, ZNF268 / Fold change vs veh, ZNF268 / Fold change vs veh, ZNF507 / RFU, DGCR2 / Fold change vs veh, DGCR2 / RFU, WDSUB1 / Fold change vs veh, WDSUB1 / Fold change vs veh, HSP90B1 /// MIR3652 / RFU, ADSS / Fold change vs veh, ADSS / RFU, GK / Fold change vs veh, GK / RFU, ZNF148 / Fold change vs veh, ZNF148 / RFU, TAF9 / Fold change vs veh, TAF9 / RFU, SLC1A5 / Fold change vs veh, SLC1A5 / RFU, SLMO2 / Fold change vs veh, SLMO2 / RFU, ABCC4 / Fold change vs veh, ABCC4 / RFU, LOC101060439 /// RAP1B / Fold change vs veh, LOC101060439 /// RAP1B / RFU, RFX7 / Fold change vs veh, RFX7 / RFU, GTPBP10 / Fold change vs veh, GTPBP10 / RFU, CNEP1R1 / Fold change vs veh, CNEP1R1 / RFU, BIVM-ERCC5 /// ERCC5 / Fold change vs veh, BIVM-ERCC5 /// ERCC5 / RFU, ILF3 / Fold change vs veh, ILF3 / RFU 11762660_at / Fold change /veh 11762660_at / RFU VCAN (11757783_s_at) / Fold change /veh VCAN (11757783_s_at) / RFU DDX43 (11728927_at) / Fold change /veh DDX43 (11728927_at) / RFU KRT8 (11758188_x_at) / Fold change /veh KRT8 (11758188_x_at) / RFU NKD1 (11759106_at) / Fold change /veh NKD1 (11759106_at) / RFU SRD5A1 (11742802_a_at) / Fold change /veh SRD5A1 (11742802_a_at) / RFU TPSAB1 /// TPSB2 (11721975_s_at) / Fold change /veh TPSAB1 /// TPSB2 (11721975_s_at) / RFU GSTM3 (11746129_a_at) / Fold change /veh GSTM3 (11746129_a_at) / RFU IL23R (11737362_x_at) / Fold change /veh IL23R (11737362_x_at) / RFU TMEM51 (11727254_a_at) / Fold change /veh TMEM51 (11727254_a_at) / RFU PIWIL2 (11732686_x_at) / Fold change /veh PIWIL2 (11732686_x_at) / RFU ORM1 (11744905_x_at) / Fold change /veh ORM1 (11744905_x_at) / RFU CCDC152 (11743942_at) / Fold change /veh CCDC152 (11743942_at) / RFU ECM1 (11717891_a_at) / Fold change /veh ECM1 (11717891_a_at) / RFU IL23R (11748794_a_at) / Fold change /veh IL23R (11748794_a_at) / RFU TNFAIP8L3 (11732012_x_at) / Fold change /veh TNFAIP8L3 (11732012_x_at) / RFU MBOAT4 (11741988_at) / Fold change /veh MBOAT4 (11741988_at) / RFU 11764193_at / Fold change /veh 11764193_at / RFU TMEM53 (11763286_at) / Fold change /veh TMEM53 (11763286_at) / RFU MAGEB2 (11727129_at) / Fold change /veh MAGEB2 (11727129_at) / RFU TMEM200A (11744735_a_at) / Fold change /veh TMEM200A (11744735_a_at) / RFU CCDC152 (11751479_a_at) / Fold change /veh CCDC152 (11751479_a_at) / RFU FAM211A (11726209_a_at) / Fold change /veh FAM211A (11726209_a_at) / RFU RGS16 (11746705_a_at) / Fold change /veh RGS16 (11746705_a_at) / RFU VCAN (11755009_s_at) / Fold change /veh VCAN (11755009_s_at) / RFU RHOB (11743442_s_at) / Fold change /veh RHOB (11743442_s_at) / RFU RGS16 (11720943_a_at) / Fold change /veh RGS16 (11720943_a_at) / RFU RGS16 (11720944_at) / Fold change /veh RGS16 (11720944_at) / RFU, VPS4B / Fold change vs veh, VPS4B / RFU, CREB1 / Fold change vs veh, CREB1 / RFU, DNAJC13 / Fold change vs veh, DNAJC13 / RFU, GNAQ / Fold change vs veh, GNAQ / RFU, CDK5R1 / Fold change vs veh, CDK5R1 / RFU, ZRANB3 / Fold change vs veh, ZRANB3 / RFU, CUL4A / Fold change vs veh, CUL4A / RFU, CCNY / Fold change vs veh, CCNY / RFU, UFL1 / Fold change vs veh, UFL1 / RFU, COG3 / Fold change vs veh, COG3 / RFU, DIAPH2 / Fold change vs veh, DIAPH2 / RFU, SKA2 / Fold change vs veh, SKA2 / RFU, AFF3 / Fold change vs veh, AFF3 / RFU, LMF1 / Fold change vs veh, LMF1 / RFU, IPO11 / Fold change vs veh, IPO11 / RFU, DFFB / Fold change vs veh, DFFB / RFU, FOXP1 / Fold change vs veh, FOXP1 / RFU, CARD8 / Fold change vs veh, CARD8 / RFU, STRN3 / Fold change vs veh, STRN3 / RFU, ADK / Fold change vs veh, ADK / RFU, RASSF2 / Fold change vs veh, RASSF2 / RFU, WIPF1 / Fold change vs veh, WIPF1 / RFU, LARP1B / Fold change vs veh, LARP1B / RFU, RASA1 / Fold change vs veh, RASA1 / RFU, RB1 / Fold change vs veh, RB1 / RFU, PPFIA1 / Fold change vs veh, PPFIA1 / RFU, MAT2A / Fold change vs veh, MAT2A / RFU, CCT5 / Fold change vs veh, CCT5 / RFU, WDR92 / Fold change vs veh, WDR92 / RFU, CUX1 / Fold change vs veh, CUX1 / RFU, TTC7A / Fold change vs veh, TTC7A / RFU, TMEM135 / Fold change vs veh, TMEM135 / RFU, DEPTOR / Fold change vs veh, DEPTOR / RFU, CPM / Fold change vs veh, CPM / RFU, DNAJB6 / Fold change vs veh, DNAJB6 / RFU, CACNA2D3 / Fold change vs veh, CACNA2D3 / RFU, DTX4 / Fold change vs veh, DTX4 / RFU, TFCP2 / Fold change vs veh, TFCP2 / RFU, GMCL1 /// GMCL1P1 / Fold change vs veh, GMCL1 /// GMCL1P1 / RFU, AEBP2 / Fold change vs veh, AEBP2 / RFU, SNHG1 /// SNORD22 /// SNORD25 /// SNORD26 /// SNORD27 /// SNORD28 /// SNORD29 /// SNORD31 / Fold change vs veh, SNHG1 /// SNORD22 /// SNORD25 /// SNORD26 /// SNORD27 /// SNORD28 /// SNORD29 /// SNORD31 / Fold change (Aza/veh), C12orf56 (ProbeSet 11735607_a_at) / Fold change (ACY-1035/veh), C12orf56 (ProbeSet 11735607_a_at) / Fold change (Aza/veh), FGFR1OP (ProbeSet 11751329_s_at) / Fold change (ACY-1035/veh), FGFR1OP (ProbeSet 11751329_s_at) / Fold change (Aza/veh), VPS36 (ProbeSet 11739960_a_at) / Fold change (ACY-1035/veh), VPS36 (ProbeSet 11739960_a_at) / RFU SYPL1 (11715823_x_at) / Fold change /veh SYPL1 (11715823_x_at) / RFU IGFBP7 (11715501_s_at) / Fold change /veh IGFBP7 (11715501_s_at) / RFU REEP3 (11722064_at) / Fold change /veh REEP3 (11722064_at) / RFU IGLL1 (11728026_x_at) / Fold change /veh IGLL1 (11728026_x_at): dose or concentration left out as unconfirmed",
  "conditions": "MV-4-11 cells, 48 hours",
  "data": [
    {"smiles": "Nc1ncn([C@@H]2O[C@H](CO)[C@@H](O)[C@H]2O)c(=O)n1", "note": "[azacitidine]", "values": [
      {"measurement": "RFU RASL12 (11751679_a_at)", "result": 15.38, "unit": "RFU"}
    ]}
  ]
}
